Where two headings read alike, the source gives them in different places.
Columns and labels:
MOML-13 = assay: Combination Index (Chou-Talalay) of Compound 1 with additional therapeutic agents; assay type: cell-based, human; settings: for Combination Index of Compound 1 + agent: MOML-13, CI scores across all 3 ratios averaged; for action of the combination with Compound 1 (synergistic, additive, antagonistic): MOML-13 (FLT3 heterozygous, BRCA2 mutant)
Description: (§1) Each combination was tested in 3 cell lines: MOML-13 (Human Acute Myeloid Leukemia cell line; Addex Bio), MV-4-11 (Human B Myelomoncytic Leukemia cell line; ATCC), and OCI-AML-3 (Human Acute Myeloid Leukemia cell line).
(§2) Within this range, 20 dose levels were tested for each combination, with each response determined in duplicate. […] The actual drug concentrations in the ratios were determined from the IC50 values obtained for each individual drug.
(§3) Raw data was analyzed using Graph Pad Prism, four parameter logistic fits, and Chou-Talalay drug combination analyses. […] For data points with Fe<0, the fractional effect was set to 0.001. Data points with Fe>0.99 or <0.01 were omitted from the Chou-Talalay analysis because the Chou-Talalay analysis fits data to the Log of the fractional effect, with equal weight applied across the range of effect, such that the high and low end of the dose response, very small changes in effect within the range of experimental error erroneously skew the outcome of the model fit.
(§4) A Combination Index (CI) vs Fractional Effect plot showing the actual combination index plotted vs Fractional effect value was plotted for each combination dose. In this analysis, CI=1 represents additive activity, CI>1 represent less than additive activity (often referred to as antagonism) and CI<1=synergistic activity (better than additive).

MV-4-11 = assay: as above; assay type: cell-based, human; settings: for Combination Index of Compound 1 + agent: MV-4-11, CI scores across all 3 ratios averaged
Description: as §1, §2, §3, §4

OCI-AML-3 = assay: as above; assay type: cell-based, human; settings: for Combination Index of Compound 1 + agent: OCI-AML-3, CI scores across all 3 ratios averaged
Description: as §1, §2, §3, §4

HL-60 cell line = assay: Combination treatments, Cell Titer-Glo viability after 72 hours; assay type: cell-based, human
Description: (§5) The additional therapeutic agents for this example were azacitidine (Cayman Chemical Cat No. 11164), decitabine (Sigma Cat No. A3656) and venetoclax (InvivoChem Cat. No. V0001).
(§6) Cell Culture: Three human acute myeloid leukemia tumor cell lines were used in this study: HL60, MV4;11 and MOLM-13. HL60 and MV4;11 were grown in IMDM base media with 20% and 10% FBS, respectively. MOLM-13 was grown in RPMI 1640 base media with 20% FBS. All culture media contained 2 mM glutamine, 100 units/mL sodium penicillin G, […] gentamicin, and 100 μg/mL streptomycin sulfate. The tumor cells were cultured in tissue culture flasks in a humidified incubator at 37° C., in an atmosphere of 5% C02 and 95% air. Assay: Tumor cells were seeded in duplicate in a volume of 100 μL/well of media into 96-well micro-culture plates at initial densities low enough to allow for several population doublings (typically three to five) during the indicated incubation period. After a 24 hour incubation, test agents were added to each well. After 72 hours of culture with test articles, cell viability was determined using the Cell Titer-Glo® (Promega G7571) assay. Briefly, Cell Titer-Glo® (Promega G7571) reagents were equilibrated at room temperature for 30 minutes; 100 μL per well was added at endpoint (72 hours). Plates were gently shaken for two minutes and then incubated at room temperature for ten minutes prior to reading luminescence on the BMG Clariostar Plus microplate reader.
(§7) An IC50 ratio for each combination was calculated from the ratio of the combination IC50 as compared to the applicable no fixed agent (vehicle) control.

MOML-13 cell line = assay: as above; assay type: cell-based, human
Description: as §5, §6, §7

MV4; 11 cell line = assay: as above; assay type: cell-based, human
Description: as §5, §6, §7

[1] = test system: human A549 lung adenocarcinoma xenograft tumors; assay: Tumor growth of A549 xenograft tumors; assay type: in vivo, mice; settings: 55 mg/kg QD4/3 off
From the text: (§8) Group 1 received PO 4-days on, 3-days off doses (QD4/3 off) of vehicle.

[2] = 55 mg/kg QD4/3 off
From the text: as §8

[3] = Adverse events and visual impairment in Phase I subjects; settings: at equivalent plasma exposure of Compound 1 and CB-5083
[4] = HL-60, fixed agent Compound 1 - 210 nM
[5] = MOML-13, fixed agent Compound 1 - 75 nM
[6] = MV4, 11, fixed agent Compound 1 - 185 nM

COCC1(CO)C(=O)C2CCN1CC2 (stereo not shown) [APR-246]
Combination Index of Compound 1 + agent (MOML-13): 1.228
Combination Index of Compound 1 + agent (MV-4-11): 1.285
Combination Index of Compound 1 + agent (OCI-AML-3): 1.279

C[C@@H]1COCCN1c1cc(C2([S@](C)(=N)=O)CC2)nc(-c2cc[nH]c3nccc2-3)n1 [AZD6738]
Combination Index of Compound 1 + agent (MOML-13): 1.338
Combination Index of Compound 1 + agent (MV-4-11): 1.228
Combination Index of Compound 1 + agent (OCI-AML-3): 1.421

CN(C)CCCOc1ccc(-c2ccc3ncc4c(c3c2)n(C2CCOCC2)c(=O)n4C)cn1 [AZDO156]
Combination Index of Compound 1 + agent (MOML-13): 1.293
Combination Index of Compound 1 + agent (MV-4-11): 1.122
Combination Index of Compound 1 + agent (OCI-AML-3): 1.159

Nc1ncn([C@@H]2O[C@H](CO)[C@@H](O)[C@H]2O)c(=O)n1 [Azacitidine, azacitidine, reference compound]
Combination: Monotherapy IC50 Ratio (HL-60 cell line; [4]): 0.82
IC50 (HL-60 cell line; Homo sapiens, 72 h, HL-60, no fixed agent (vehicle), read-out: IC50): 2400 nM
IC50 (MOML-13 cell line; Homo sapiens, 72 h, MOML-13, no fixed agent (vehicle), read-out: IC50): 445 nM
Combination: Monotherapy IC50 Ratio (MOML-13 cell line; [5]): 0.28
IC50 (MV4; 11 cell line; Homo sapiens, 72 h, MV4, 11, no fixed agent (vehicle), read-out: IC50): 1100 nM
Combination: Monotherapy IC50 Ratio (MV4; 11 cell line; [6]): 0.10

Cc1cc2c(C(N)=O)cccc2n1-c1nc2c(c(NCc3ccccc3)n1)COCC2 [CB-5083, 1-[7,8-dihydro-4-[(phenylmethyl)amino]-5H-pyrano[4,3-d]pyrimidin-2-yl]-2-methyl-1H-indole-4-carboxamide, reference compound]
TGI [1]: 33%
drug-related deaths [2]: no drug-related deaths
symptoms of visual impairment or other visual adverse events [3]: visual adverse events as seen

Nc1ncn([C@H]2C[C@H](O)[C@@H](CO)O2)c(=O)n1 [Decitabine, decitabine, reference compound]
Combination: Monotherapy IC50 Ratio (HL-60 cell line; [4]): 0.76
IC50 (HL-60 cell line; [4]): 4030 nM
IC50 (HL-60 cell line; Homo sapiens, HL-60, 72 h): 5290 nM
IC50 (MOML-13 cell line; Homo sapiens, 72 h): 10.8 nM
Combination: Monotherapy IC50 Ratio (MOML-13 cell line; [5]): 0.60
IC50 (MOML-13 cell line; [5]): 6.5 nM
IC50 (MV4; 11 cell line; Homo sapiens, MV4-11, 72 h): 390 nM
Combination: Monotherapy IC50 Ratio (MV4; 11 cell line; [6]): 0.02
IC50 (MV4; 11 cell line; [6]): 7.1 nM

CCc1nc(C(N)=O)c(Nc2ccc(N3CCC(N4CCN(C)CC4)CC3)c(OC)c2)nc1NC1CCOCC1 [Gilteritinib]
Combination Index of Compound 1 + agent (MOML-13): 1.266
Combination Index of Compound 1 + agent (MV-4-11): 0.799
Combination Index of Compound 1 + agent (OCI-AML-3): 1.514

CC(C)C[C@H](NC(=O)CNC(=O)c1cc(Cl)ccc1Cl)B(O)O [Ixazomib]
action of the combination with Compound 1 (synergistic, additive, antagonistic) (MOML-13): antagonistic
Combination Index of Compound 1 + agent (MOML-13): 1.413
action of the combination with Compound 1 (synergistic, additive, antagonistic) (MV-4-11; MV-4-11 (FLT3 homozygous mutant)): antagonistic
Combination Index of Compound 1 + agent (MV-4-11): 1.546
action of the combination with Compound 1 (synergistic, additive, antagonistic) (OCI-AML-3; OCI-AML-3 (FLT3 wildtype)): antagonistic
Combination Index of Compound 1 + agent (OCI-AML-3): 1.438

COc1ccc([C@@H](O)c2cc(-c3ncnc4cc(N5CCOCC5)ccc34)c(F)cc2Cl)nn1 [Nedisertib]
Combination Index of Compound 1 + agent (MOML-13): 1.272
Combination Index of Compound 1 + agent (MV-4-11): 0.986
Combination Index of Compound 1 + agent (OCI-AML-3): 1.170

NS(=O)(=O)OC[C@@H]1C[C@@H](n2ccc3c(N[C@H]4CCc5ccccc54)ncnc32)C[C@@H]1O [Pevonedistat]
Combination Index of Compound 1 + agent (MOML-13): 1.120
Combination Index of Compound 1 + agent (MV-4-11): 1.302
Combination Index of Compound 1 + agent (OCI-AML-3): 1.186

Cn1ncnc1[C@H]1c2n[nH]c(=O)c3cc(F)cc(c23)N[C@@H]1c1ccc(F)cc1 [Talazoparib]
action of the combination with Compound 1 (synergistic, additive, antagonistic) (MOML-13): strong synergy
Combination Index of Compound 1 + agent (MOML-13): 0.529
Combination Index of Compound 1 + agent (MV-4-11): 0.769
Combination Index of Compound 1 + agent (OCI-AML-3): 0.986

CC1(C)CCC(CN2CCN(c3ccc(C(=O)NS(=O)(=O)c4ccc(NCC5CCOCC5)c([N+](=O)[O-])c4)c(Oc4cnc5[nH]ccc5c4)c3)CC2)=C(c2ccc(Cl)cc2)C1 [Venetoclax]
Combination Index of Compound 1 + agent (MOML-13): 0.730
Combination Index of Compound 1 + agent (MV-4-11): 0.819
Combination Index of Compound 1 + agent (OCI-AML-3): 0.855

— patent publication US20230172936A1, “VCP/p97 INHIBITOR FOR THE TREATMENT OF CANCER” (Cleave Therapeutics, Inc., priority 2020, published 2023)
